Source: patent US7939288B2, “Method for differentiating between factor XIII deficiency states and fibrinogen deficiency states by means of thrombelastographic techniques” (CSL Behring GmbH, priority 2005, dated 2011)

Biological target: T1, factor XIII (Homo sapiens, UniProt P00488)
T1 construct: The test batch contained: 200 μl of plasma; from tissue; host or cells: standard human plasma
T1 sequence (P00488 39-732 limits assumed): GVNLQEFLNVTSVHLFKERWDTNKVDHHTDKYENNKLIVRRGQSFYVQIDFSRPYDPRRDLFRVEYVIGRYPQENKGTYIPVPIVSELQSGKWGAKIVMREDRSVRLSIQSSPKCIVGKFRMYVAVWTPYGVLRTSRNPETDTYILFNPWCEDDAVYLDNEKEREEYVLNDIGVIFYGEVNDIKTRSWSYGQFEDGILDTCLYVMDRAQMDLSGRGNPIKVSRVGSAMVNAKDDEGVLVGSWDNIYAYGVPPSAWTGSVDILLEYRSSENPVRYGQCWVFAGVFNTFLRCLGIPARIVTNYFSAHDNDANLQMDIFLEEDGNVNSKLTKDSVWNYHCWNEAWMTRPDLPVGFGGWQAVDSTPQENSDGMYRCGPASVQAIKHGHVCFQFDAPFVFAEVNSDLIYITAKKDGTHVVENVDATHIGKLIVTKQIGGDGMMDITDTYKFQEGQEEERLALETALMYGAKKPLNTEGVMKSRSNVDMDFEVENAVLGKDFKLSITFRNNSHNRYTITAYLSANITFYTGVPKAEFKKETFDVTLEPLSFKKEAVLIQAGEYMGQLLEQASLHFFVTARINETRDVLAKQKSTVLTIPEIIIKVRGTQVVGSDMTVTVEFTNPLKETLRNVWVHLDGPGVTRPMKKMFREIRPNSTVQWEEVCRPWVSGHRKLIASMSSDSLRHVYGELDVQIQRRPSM
Test: TEG of standard human plasma with low molecular weight factor XIII inhibitors, clotting started by tissue factor reagent (Thromborel S)
Type: biochemical
Experimental: For the quantitative determination of the influence of factor XIII, standard human plasma with or without addition of low molecular weight factor XIII inhibitors was analysed by means of TEG. The clotting reaction was started or accelerated by addition of a tissue factor reagent. The test batch contained: 200 μl of plasma, 30 μl of NaCl soln (control) or inhibitor solution in different dilutions, 50 μl of tissue factor reagent. (Thromborel S, Dade Behring) and 20 μl of calcium chloride solution (200 mmol/l). The reagents were pipetted into the cup at 37° C. and the TEG measurement was started with Haemoscope apparatuses. Alternatively, the calcium chloride can also be already added to the tissue factor reagent and the reaction thus started. The measurement parameters of reaction time (R), alpha angle, maximum amplitude (MA) and time to achieve the maximum amplitude (MA) were determined and evaluated. […] The investigations carried out here with plasma are in principle also applicable to whole blood.

[1] = concentration in the test 1.07 μg/ml, standard human plasma
[2] = concentration in the test 1.071 μg/ml (so in the source), standard human plasma
[3] = concentration in the test 3.21 μg/ml, standard human plasma
[4] = concentration in the test 3.214 μg/ml (so in the source), standard human plasma
[5] = concentration in the test 10.7 μg/ml, standard human plasma
[6] = concentration in the test 32.1 μg/ml, standard human plasma
[7] = concentration in the test 107 μg/ml, standard human plasma
[8] = concentration in the test 321 μg/ml, standard human plasma
[9] = concentration in the test 0.32 μg/ml, standard human plasma
[10] = concentration in the test 107 μg/ml, standard human plasma, 107 µg/ml in the test
[11] = concentration in the test 321 μg/ml, standard human plasma, 321 µg/ml in the test
[12] = concentration in the test 536 μg/ml, standard human plasma, 536 µg/ml in the test
[13] = concentration in the test 0.033 μg/ml, Table 3
[14] = concentration in the test 0.10 μg/ml, Table 3
[15] = concentration in the test 0.33 μg/ml, Table 3
[16] = concentration in the test 1.00 μg/ml, Table 3
[17] = concentration in the test 3.33 μg/ml, Table 3

## NCCCCN [Putrescine]
[1]
  Angle: 73.1 °
  MA: 17.2 mm
  R: 22.5 s
  TMA: 452.5 s
[2]
  Angle: 69.5 °
  MA: 13.6 mm
  R: 25 s
  TMA: 405.0 s
[3]
  Angle: 73.7 °
  MA: 15.9 mm
  R: 17.5 s
  TMA: 277.5 s
[4]
  Angle: 72.6 °
  MA: 13.9 mm
  R: 32.5 s
  TMA: 327.5 s
[5]
  Angle: 73.4 °
  MA: 18.7 mm
  R: 20.0 s
  TMA: 672.5 s
[6]
  Angle: 73.0 °
  MA: 16.9 mm
  R: 25 s
  TMA: 585.0 s
[7]
  Angle: 73.0 °
  MA: 16.5 mm
  R: 15 s
  TMA: 505.0 s
[8]
  Angle: 72.8 °
  MA: 15.8 mm
  R: 20 s
  TMA: 400.0 s

## CN(C)c1cccc2c(S(=O)(=O)NCCCCCN)cccc12 [Monodansylcadaverine]
[9]
  Angle: 74.0 °
  MA: 18.1 mm
  R: 20.0 s
  TMA: 655.0 s
[1]
  Angle: 74.9 °
  MA: 18.4 mm
  R: 22.5 s
  TMA: 610.0 s
[3]
  Angle: 74.7 °
  MA: 19.1 mm
  R: 20.0 s
  TMA: 657.5 s
[5]
  Angle: 74.4 °
  MA: 18.4 mm
  R: 25.0 s
  TMA: 560.0 s
[6]
  Angle: 74.4 °
  MA: 17.3 mm
  R: 17.5 s
  TMA: 562.5 s
[10]
  Angle: 76.9 °
  MA: 18.7 mm
  R: 32.5 s
  TMA: 237.5 s
[11]
  Angle: 71.0 °
  MA: 15.1 mm
  R: 20.0 s
  TMA: 490.0 s
[12]
  Angle: 70.3 °
  MA: 13.3 mm
  R: 27.5 s
  TMA: 370.0 s

## CC(=O)CSc1n(C)c(C)c(C)[n+]1C.[Cl-] [1,3,4,5-tetramethyl-2-[(2-oxopropyl)thio]imidazolium chloride]
Concentration in the test 0.033 μg/ml
  MA: 21.5 mm
[13]
  Angle: 79.6 °
  R: 22.5 s
  TMA: 177.5 s
Concentration in the test 0.10 μg/ml
  MA: 18.5 mm
[14]
  Angle: 79.0 °
  R: 22.5 s
  TMA: 140.0 s
Concentration in the test 0.33 μg/ml
  MA: 14.9 mm
[15]
  Angle: 77.0 °
  R: 22.5 s
  TMA: 77.5 s
Concentration in the test 1.00 μg/ml
  MA: 13.1 mm
[16]
  Angle: 75.4 °
  R: 22.5 s
  TMA: 77.5 s
Concentration in the test 3.33 μg/ml
  MA: 12.4 mm
[17]
  Angle: 74.0 °
  R: 22.5 s
  TMA: 77.5 s

## NCCc1c[nH]cn1 [Histamine]
[1]
  Angle: 73.4 °
  MA: 17.8 mm
  R: 20.0 s
  TMA: 592.5 s
[2]
  Angle: 70.3 °
  MA: 14.0 mm
  R: 15.0 s
  TMA: 492.5 s
[3]
  Angle: 75.0 °
  MA: 17.9 mm
  R: 22.5 s
  TMA: 527.5 s
[4]
  Angle: 71.9 °
  MA: 13.0 mm
  R: 25.0 s
  TMA: 182.5 s
[5]
  Angle: 74.8 °
  MA: 19.2 mm
  R: 20.0 s
  TMA: 622.5 s
[6]
  Angle: 73.9 °
  MA: 17.2 mm
  R: 22.0 s
  TMA: 472.5 s
[7]
  Angle: 73.5 °
  MA: 16.9 mm
  R: 17.5 s
  TMA: 462.5 s
[8]
  Angle: 72.7 °
  MA: 15.5 mm
  R: 20.0 s
  TMA: 430.0 s
